Tests used:
Type in all cases: in vivo
Quackgrass = test: Pre-emergent herbicidal activity (Table II); settings: 2-3 weeks
Protocol: (§1) The pre-emergence tests are conducted as follows:
(§2) A good grade of top soil is placed in aluminum pans and compacted to a depth of three-eighths to one-half inch from the top of the pan. On the top of the soil is placed a predetermined number of seeds or vegetative propagules of various plant species. The soil required to level fill the pans after seeding or adding vegetative propagules is weighed into a pan. A known amount of the active ingredient applied in a solvent or as a wettable powder suspension and the soil are thoroughly mixed, and used as a cover layer for prepared pans. After treatment, the pans are moved into a greenhouse bench where they are watered from below as needed to give adequate moisture for germination and growth.
(§3) Approximately 2-3 weeks after seeding and treating, the plants are observed and the results recorded. The herbicidal rating is obtained by means of fixed scale based on the percent injury of each plant species. The ratings are defined as follows: […]
(§4) The plant species utilized in one set of tests, the data for which are shown in Table II, are identified by letter in accordance with the following legend: […]

Johnsongrass = test: Pre-emergent herbicidal activity (Table II); settings: 2-3 weeks
Protocol: as §1, §2, §3, §4

Yellow Nutsedge = test: Pre-emergent herbicidal activity (Table II); settings: 2-3 weeks
Protocol: as §1, §2, §3, §4

Cocklebur [1] = test: Pre-emergent herbicidal activity (Table II); settings: 2-3 weeks
Protocol: as §1, §2, §3, §4

Morningglory [2] = test: Pre-emergent herbicidal activity (Table II); settings: 2-3 weeks
Protocol: as §1, §2, §3, §4

Smartweed [3] = test: Pre-emergent herbicidal activity (Table II); settings: 2-3 weeks
Protocol: as §1, §2, §3, §4

Lambsquarters [4] = test: Pre-emergent herbicidal activity (Table II); settings: 2-3 weeks
Protocol: as §1, §2, §3, §4

Velvetleaf [5] = test: Pre-emergent herbicidal activity (Table II); settings: 2-3 weeks
Protocol: as §1, §2, §3, §4

Downy Brome [6] = test: Pre-emergent herbicidal activity (Table II); settings: 2-3 weeks
Protocol: as §1, §2, §3, §4

Canada Thistle = test: Pre-emergent herbicidal activity (Table II); settings: 2-3 weeks
Protocol: as §1, §2, §3, §4

Barnyardgrass [7] = test: Pre-emergent herbicidal activity (Table II); settings: 2-3 weeks
Protocol: as §1, §2, §3, §4

Rice = test: Pre-emergent herbicidal activity (Table III)
Protocol: as §1, §2, §3
(§5) The compounds were further tested by utilizing the above procedure on the following plant species: […]

Panicum = test: Pre-emergent herbicidal activity (Table III)
Protocol: as §1, §2, §3, §5

Cocklebur [8] = test: Pre-emergent herbicidal activity (Table III)
Protocol: as §1, §2, §3, §5

Morningglory [9] = test: Pre-emergent herbicidal activity (Table III)
Protocol: as §1, §2, §3, §5

Sugarbeet = test: Pre-emergent herbicidal activity (Table III)
Protocol: as §1, §2, §3, §5

Smartweed [10] = test: Pre-emergent herbicidal activity (Table III)
Protocol: as §1, §2, §3, §5

Lambsquarters [11] = test: Pre-emergent herbicidal activity (Table III)
Protocol: as §1, §2, §3, §5

Wheat = test: Pre-emergent herbicidal activity (Table III)
Protocol: as §1, §2, §3, §5

Soybean = test: Pre-emergent herbicidal activity (Table III)
Protocol: as §1, §2, §3, §5

Velvetleaf [12] = test: Pre-emergent herbicidal activity (Table III)
Protocol: as §1, §2, §3, §5

Downy Brome [13] = test: Pre-emergent herbicidal activity (Table III)
Protocol: as §1, §2, §3, §5

Wild Buckwheat = test: Pre-emergent herbicidal activity (Table III)
Protocol: as §1, §2, §3, §5

Barnyardgrass [14] = test: Pre-emergent herbicidal activity (Table III)
Protocol: as §1, §2, §3, §5

Crabgrass = test: Pre-emergent herbicidal activity (Table III)
Protocol: as §1, §2, §3, §5

Hemp Sesbania = test: Pre-emergent herbicidal activity (Table III)
Protocol: as §1, §2, §3, §5

Sorghum = test: Pre-emergent herbicidal activity (Table III)
Protocol: as §1, §2, §3, §5

Measured: Herbicidal rating
Also: ranges in brackets are in %.

N--[(2-oxo-3(2H)--benzothiazolyl)methyl]-N--(2-ethyl-6-methyl-1-cyclohexen-1-yl)-2-chloro-acetamide, mixed with its -N--[(2-oxo-3(2H)--benzothiazolyl)methyl]-N--(2-methyl-6-ethyl-1-cyclohexen-1-yl)-2-chloroacetamide [Example 4]
3 (75-100): Johnsongrass; 11.2 kg/ha | Lambsquarters [4]; 11.2 kg/ha | Barnyardgrass [7]; 5.6 kg/ha | Barnyardgrass [7]; 11.2 kg/ha | Cocklebur [8]; 5.6 kg/ha | Smartweed [10]; 1.12 kg/ha | Smartweed [10]; 5.6 kg/ha | Lambsquarters [11]; 5.6 kg/ha | Barnyardgrass [14]; 1.12 kg/ha | Barnyardgrass [14]; 5.6 kg/ha | Crabgrass; 1.12 kg/ha | Crabgrass; 5.6 kg/ha | Hemp Sesbania; 5.6 kg/ha
0 (0-24): Quackgrass; 5.6 kg/ha | Quackgrass; 11.2 kg/ha | Johnsongrass; 5.6 kg/ha | Yellow Nutsedge; 5.6 kg/ha | Yellow Nutsedge; 11.2 kg/ha | Cocklebur [1]; 5.6 kg/ha | Cocklebur [1]; 11.2 kg/ha | Morningglory [2]; 5.6 kg/ha | Morningglory [2]; 11.2 kg/ha | Smartweed [3]; 5.6 kg/ha | Smartweed [3]; 11.2 kg/ha | Velvetleaf [5]; 5.6 kg/ha | Velvetleaf [5]; 11.2 kg/ha | Rice; 0.28 kg/ha | Rice; 1.12 kg/ha | Panicum; 0.28 kg/ha | Panicum; 1.12 kg/ha | Cocklebur [8]; 1.12 kg/ha | Morningglory [9]; 1.12 kg/ha | Sugarbeet; 1.12 kg/ha | Smartweed [10]; 0.28 kg/ha | Lambsquarters [11]; 0.28 kg/ha | Wheat; 0.28 kg/ha | Wheat; 1.12 kg/ha | Wheat; 5.6 kg/ha | Soybean; 0.28 kg/ha | Soybean; 1.12 kg/ha | Soybean; 5.6 kg/ha | Velvetleaf [12]; 0.28 kg/ha | Velvetleaf [12]; 1.12 kg/ha | Velvetleaf [12]; 5.6 kg/ha | Downy Brome [13]; 0.28 kg/ha | Downy Brome [13]; 1.12 kg/ha | Downy Brome [13]; 5.6 kg/ha | Wild Buckwheat; 0.28 kg/ha | Wild Buckwheat; 1.12 kg/ha | Wild Buckwheat; 5.6 kg/ha | Barnyardgrass [14]; 0.28 kg/ha | Hemp Sesbania; 0.28 kg/ha | Hemp Sesbania; 1.12 kg/ha | Sorghum; 0.28 kg/ha | Sorghum; 1.12 kg/ha | Sorghum; 5.6 kg/ha
2 (50-74): Canada Thistle; 11.2 kg/ha | Panicum; 5.6 kg/ha | Lambsquarters [11]; 1.12 kg/ha | Crabgrass; 0.28 kg/ha
1 (25-49): Lambsquarters [4]; 5.6 kg/ha | Downy Brome [6]; 5.6 kg/ha | Downy Brome [6]; 11.2 kg/ha | Canada Thistle; 5.6 kg/ha | Rice; 5.6 kg/ha | Morningglory [9]; 0.28 kg/ha | Morningglory [9]; 5.6 kg/ha | Sugarbeet; 0.28 kg/ha | Sugarbeet; 5.6 kg/ha

Reference: patent publication US4731451A, “N-((2-oxo-3(2H)benzothiazolyl)methyl)-2-chloroacetanilides” (Monsanto Company, priority 1980, dated 1988)
